Key:
[1] = test system: dopaminergic neurospheres; assay: Effects of antioxidants on three-dimensional dopaminergic neuron differentiation (3D-Ali); format: cell-based, human; settings: 3D-Ali neurospheres cultured with anti-oxidant (FIG. 21B)
Text: FIG. 20. Protocol design with the addition of anti-oxidants. FIG. 21A-B. Effects of DA maturation with the additional of anti-oxidants. […] The inventors also tested the effects of different antioxidants on three-dimensional dopaminergic neuron differentiation. […] Most of the tested anti-oxidants diminish TH expression during dopaminergic neuron differentiation.

[2] = test system: human embryonic stem cell line HS420; assay: Dopaminergic differentiation of hESC with ALK inhibitors in the 3D-AirLiwell protocol, q-PCR after 2 and 4 weeks; format: cell-based; settings: HS420, 3D-AirLiwell, q-PCR at 2 and 4 weeks; for activity with respect to general neural differentiation, compared to LDN/SB (dual smad inhibition): exposed from day 0 during one week at 0.2 μM and 0.8 μM; for effect on dopaminergic differentiation, compared to LDN/SB: exposed from day 0 during one week at 0.2 M and 0.8 M
Experimental: FIG. 22. Dopaminergic differentiation adding Alk-I compounds in 3D-Ali protocol. The concentrations of the compounds tested were 0.2 μM and 0.8 μM.
FIG. 23A-D. Quantitative PCR results: Dopaminergic differentiation adding Alk-I compounds in 3D-Ali protocol. Shown are qPCR results at week 2 and week 4 for (A) Ki-67 and Nestin; (B) Pax6 and B3-Tub; (C) Lmx1a and Nurr-1; and (D) Map-2 and TH. The data in FIGS. 23A-D shown in each group of 12 bars represents, from left to right: 1: Control day 0, 2: LDN193189/SB431542, 3: DMSO 0.2 μM, 4: DMSO 0.8 μM, 5: DMH1 0.2 μM, 6: DMH2 0.2 μM, 7: A-8301 0.2 μM, 8: K02288 0.2 μM, 9: DMH1 0.8 μM, 10: DMH2 0.8 μM, 11: A-8301 0.8 μM, 12: K02288 0.8 μM. The 11 bars in the bottom bar graph in FIG. 23D represent data, from left to right, from: 1: Control day 0, 2: LDN193189/SB431542, 3: DMSO 0.2 μM, 4: DMSO 0.8 μM, 5: DMH1 0.2 μM, 6: DMH2 0.2 μM, 7: A-8301 0.2 μM, 8: K02288 0.2 μM, 9: DMH1 0.8 μM, 10: DMH2 0.8 μM, and 11: A-8301 0.8 μM.
For neural differentiation, 2200 human pluripotent stem cells per microwell in supplemented X-VIVO medium were deposited on a substrate material consisting in molded microwells on an insert in air-liquid interface (720 microwells per well). In order to correctly distribute the cells in each microwell, the substrate material is gently shacked and put on a stable support for 15 min. Supplemented X-VIVO medium was added under the insert. Medium from the cell suspension added on the microwells, was then removed by aspiration with a 0.5×16 mm needle and spheroids are just covered by a thin film (10) of residual medium before incubation of the plate at 37° C. for 24 hours.
24 hours after spheroids formation, culture medium under the insert is replaced with fresh medium made by a combination of half X-VIVO and half Neurobasal medium without ROCK inhibitor supplemented with 1% of penicillin/streptomycin, 1% Non-essential amino-acids, 1% B-27 supplement (Thermofisher), L-Glutamin, 0.5 μM of SB431542, 10 μM LDN193189 (dual-SMAD inhibition cocktail), 100 ng/ml of SHH, 2 μM of Purmorphamin and 100 ng/ml FGF-8. Spheroids are then cultured in their individualized microwells in a conventional incubator at 37° C. and 5% C02. At day 3, 3 μM of CHIR99021 was added. The neurobasal medium replaced progressively the X-VIVO medium. At day 8, medium is replaced by Neurobasal medium supplemented with 1% of penicillin/streptomycin, 1% Non-essential amino-acids, 1% B-27 supplement, 3 μM of CHIR99021, 0.5 mM of cAMP, […], […], 5 ng/mL of FGF20, 1 ng/mL of TGF-B3 and 1 μM of Compound E. At day 13 CHIR99021 is removed. NB: for each medium exchange, the half of medium was refreshed, using 0.5 ml per well.
For qRT-PCR, RNA was extracted from dopaminergic neurospheres cultivated in immersion (3D-i) and in air-liquid culture interface (3D-ALi) derived from 3 different cell batches of HS420 cells. The time points for RNA extraction were days: 3, 8, 15, 22, 29, 43, 57. Total RNA isolation was performed using the Qiagen RNeasy kit according to the manufacturer's instructions. RNA concentration was determined by a spectrometer (Thermo Scientific™ NanoDrop 2000) and RNA quality was verified by the 2100 Bioanalyzer (Agilent). Quantitative PCR was performed with Tecan Freedom Evo by using SYBR green fluorescence. cDNA was produced from RNA by using the prime script RT reagent kit (Takara). All primers were diluted at a concentration of […], and a master mix was used (Power SYBR Green Master Mix, Thermo Fisher Scientific). To perform the RNA-sequencing, the same RNA used in qPCR, were used to analyze the gene expression at week 6 (=day 43) of differentiation. […]

[3] = test system: dopaminergic neurospheres; assay: Effect of laminin and hypoxia on dopaminergic maturation of neurospheres; format: cell-based, human; settings: 2.5% and 10% laminin; normoxia (20% oxygen) or hypoxia (3% oxygen); day 29
Text: FIG. 17. Experimental design and engineering of maturation protocol.
FIG. 18. Effect of hypoxia and laminin on dopaminergic maturation.
To improve the maturation step, 2.5% or 10% of Laminin 511 (Takkara) or Geltrex® (A growth factors reduced extracellular matrix, ThermoFisher) will be added into the cell culture medium to promote neuronal maturation of spheroids starting from day 1 of differentiation to the end and from day 13 to the end. RGD peptides could also be tested to enhance maturation, by adding them to the culture medium similarly to laminin or geltrex.
The inventors tested whether the additional of an extracellular matrix and/or hypoxia could improve the development of mature neurons. 2.5% and 10% laminin and normoxia (20% oxygen) or hypoxia (3% oxygen) was tested (FIG. 17). […] It was further hypothesized that other changes to the cell culture, such as modification of the volume of the cell culture medium could provide for an improvement in the maturation of neurons. […] In AirLiwell (6 well plate), a seeding 1.5 million cells per well (6 well AirLiwell plate) yields 2350 neurospheres.

| Compound | DA neuron differentiation [1] | activity with respect to general neural differentiation, compared to LDN/SB (dual smad inhibition) [2] | effect on dopaminergic differentiation, compared to LDN/SB [2] | effect on maturation of dopaminergic neurons [3] |
| --- | --- | --- | --- | --- |
| O=C1O[C@H]([C@@H](O)CO)C(O)=C1O [ascorbic acid] | marked enhancement | – | – | – |
| c1ccc2c(-c3cnn4cc(-c5ccc(OCCN6CCOCC6)cc5)cnc34)ccnc2c1 [DMH2, 4-[6-[4-[2-(4-Morpholinyl)ethoxy]phenyl]pyrazolo[1,5-a]pyrimidin-3-yl]quinoline] | – | activity comparable to LDN/SB | roughly equipotent as compared to LDN/SB | – |
| Cc1cccc(-c2nn(C(=S)Nc3ccccc3)cc2-c2ccnc3ccccc23)n1 [A-8301, 3-(6-Methyl-2-pyridinyl)-N -phenyl-4-(4-quinolinyl)-1H -pyrazole-1-carbothioamide] | – | activity comparable to LDN/SB | no major effects | – |
| CC(C)Oc1ccc(-c2cnc3c(-c4ccnc5ccccc45)cnn3c2)cc1 [DMH1, 4-[6-[4-(1-Methylethoxy)phenyl]pyrazolo[1,5-a]pyrimidin-3-yl]-quinoline] | – | activity comparable to LDN/SB | roughly equipotent as compared to LDN/SB | – |
| laminin | – | – | – | did not provide any apparent effect |
| COc1cc(-c2cc(-c3cccc(O)c3)cnc2N)cc(OC)c1OC [K02288] | – | activity comparable to LDN/SB | no major effects | – |
